In BindingDB's records for doi:10.7270/Q27W69N8 (Srmlsc, 2009):
pIC50: −log10 of the molar value.

Each compound was assayed against T1, M17 leucyl aminopeptidase (Plasmodium falciparum (isolate 3D7), UniProt Q8IL11) (assay: P. falciparum M17LAP inhibitors, primary screen, biochemical, fluorogenic H-Leu-NHMec substrate, 1536-well (AID 1619)).
T1 sequence (Q8IL11 whole entry): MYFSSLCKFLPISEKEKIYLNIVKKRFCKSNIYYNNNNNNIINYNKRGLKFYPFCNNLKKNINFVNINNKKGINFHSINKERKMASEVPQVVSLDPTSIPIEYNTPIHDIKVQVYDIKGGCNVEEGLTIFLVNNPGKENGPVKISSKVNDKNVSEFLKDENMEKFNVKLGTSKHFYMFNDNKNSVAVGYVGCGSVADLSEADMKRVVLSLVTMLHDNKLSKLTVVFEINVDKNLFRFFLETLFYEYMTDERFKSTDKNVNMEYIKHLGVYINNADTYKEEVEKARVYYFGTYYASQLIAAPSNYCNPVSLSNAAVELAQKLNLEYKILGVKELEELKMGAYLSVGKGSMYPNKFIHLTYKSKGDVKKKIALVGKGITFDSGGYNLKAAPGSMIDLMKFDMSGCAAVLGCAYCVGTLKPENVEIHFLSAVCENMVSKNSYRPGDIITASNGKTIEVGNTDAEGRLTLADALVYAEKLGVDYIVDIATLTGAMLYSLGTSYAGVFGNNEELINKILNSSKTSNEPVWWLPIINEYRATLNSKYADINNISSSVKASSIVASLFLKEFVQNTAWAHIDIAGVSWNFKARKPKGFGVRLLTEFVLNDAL

Q: `CCOC(=O)C1C(=O)C(=Cc2ccc(OCC(=O)O)c(OCC)c2)SC1=Nc1ccc(C)cc1` (centres undefined) [(2-ethoxy-4-{[4-(ethoxycarbonyl)-5-[(4-methylphenyl)amino]-3-oxo-2(3H)-thienylidene]methyl}phenoxy)acetic acid] was tested. Which pIC50 did it give?
A: Its pIC50 is 4.81.

Q: With `CC(C)(C)c1ccc(CN=Nc2ccc(C(=O)O)cc2)cc1` as the compound, how does the pIC50 read?
A: Its pIC50 is 4.88.

Q: How did the pIC50 turn out when `C/C(=C\c1ccco1)C1c2c(-c3ccccc3)n[nH]c2OC(=N)C1C#N` (centres undefined) [6-amino-4-[(E)-1-(furan-2-yl)prop-1-en-2-yl]-3-phenyl-2,4-dihydropyrano[2,3-c]pyrazole-5-carbonitrile] was run?
A: The pIC50 was 4.08.

Q: `N#CC1C(=N)Oc2[nH]nc(-c3ccccc3)c2C1c1cccnc1` (centres undefined) [MLS000030179] was tested. Which pIC50 did it give?
A: The pIC50 was 4.22.

Q: `Cc1ccc(SCc2n[nH]c3c2C2(CCSCC2)C(C#N)C(=N)O3)cc1` (centres undefined) [6-amino-3-[(4-methylphenyl)sulfanylmethyl]spiro[2H-pyrano[2,3-c]pyrazole-4,4'-thiane]-5-carbonitrile] was tested. Which pIC50 did it give?
A: Its pIC50 is 4.04.

Q: `O=C(O)[C@H]1O[C@@H](Oc2c(-c3ccc(O)c(O)c3)oc3cc(O)cc(=O)c-3c2O)[C@H](O)[C@@H](O)[C@@H]1O` [quercetin glucuronide] was tested. Which pIC50 did it give?
A: Its pIC50 is 4.32.

Q: `Cc1ccc(CN=Nc2ccc(C(=O)O)cc2)s1` [SMR000364894] was tested. Which pIC50 did it give?
A: The pIC50 was 4.69.

Q: With `Cc1cc(C=C2C(=O)NC(=O)N(c3ccc(F)cc3)C2=O)c(C)n1-c1ccc(C(=O)O)cc1` [SMR000273525] as the compound, how does the pIC50 read?
A: Its pIC50 is 3.83.

Q: How did the pIC50 turn out when `Cc1[nH][nH]c(=O)c1CCC(=O)NN=CC(Br)=Cc1ccccc1` [N'-(2-bromo-3-phenyl-2-propen-1-ylidene)-3-(3-methyl-5-oxo-4,5-dihydro-1H-pyrazol-4-yl)propanohydrazide] was run?
A: The pIC50 was 5.10.

Q: `Cc1ccc(-c2n[nH]c3c2C(c2ccoc2)C(C#N)C(=N)O3)cc1C` (centres undefined) [SMR000078160] was tested. Which pIC50 did it give?
A: Its pIC50 is 5.44.

Q: `CC(=NNC(=O)CCc1c(C)[nH][nH]c1=O)c1ccccc1` [3-(3-methyl-5-oxidanylidene-1,4-dihydropyrazol-4-yl)-N-(1-phenylethylideneamino)propanamide] was tested. Which pIC50 did it give?
A: Its pIC50 is 4.44.

Q: `C=CCN1C(=O)/C(=C/c2ccc(OCC(=O)O)cc2)SC1=Nc1nccs1` [2-[4-[(Z)-[4-oxidanylidene-3-prop-2-enyl-2-(1,3-thiazol-2-ylimino)-1,3-thiazolidin-5-ylidene]methyl]phenoxy]ethanoic acid] was tested. Which pIC50 did it give?
A: Its pIC50 is 4.72.

Q: `C=CCOc1c(OC)cc(CN=Nc2cccc(C(=O)O)c2)c(Br)c1Br` was tested. Which pIC50 did it give?
A: Its pIC50 is 6.00.

Q: How did the pIC50 turn out when `CN(C)c1ccc(/N=N/c2ccccc2C(=O)OCC(=O)N2CCCC2)cc1` [MLS000374806] was run?
A: Its pIC50 is 5.03.

Q: `CC(CC1CC(C)(C)OC1=O)N=Nc1nc(-c2ccccc2)cs1` (centres undefined) [SMR000220752] was tested. Which pIC50 did it give?
A: The pIC50 was 4.28.

Q: With `O=C(CSc1n[nH]c(=O)[nH]c1=O)NN=Cc1ccccc1O` [2-[(3,5-dioxo-2,3,4,5-tetrahydro-1,2,4-triazin-6-yl)thio]-N'-(2-hydroxybenzylidene)acetohydrazide] as the compound, how does the pIC50 read?
A: Its pIC50 is 3.89.

Q: `Cc1ccc(S(=O)(=O)Oc2cccc(-n3c(O)c4c(c3O)CC=CC4)c2)cc1` [SMR000197106] was tested. Which pIC50 did it give?
A: The pIC50 was 4.30.

Q: `COc1ccccc1C=CC=NNC(=O)CCc1c(C)[nH][nH]c1=O` [3-(3-Methyl-5-oxo-4,5-dihydro-1H-pyrazol-4-yl)-propionic acid [(E)-3-(2-methoxy-phenyl)-prop-2-en-(E)-ylidene]-hydrazide] was tested. Which pIC50 did it give?
A: The pIC50 was 4.24.

Q: `CC(=NNC(=O)CCc1c(C)[nH][nH]c1=O)c1ccc([N+](=O)[O-])cc1` was tested. Which pIC50 did it give?
A: The pIC50 was 4.09.

Q: `Cc1cc(-c2n[nH]c3c2C(c2cccc(O)c2)C(C#N)C(=N)O3)c(C)s1` (centres undefined) [SMR000136653] was tested. Which pIC50 did it give?
A: The pIC50 was 4.28.

Q: With `CC(=NNC(=O)Cc1c(C)[nH][nH]c1=O)c1ccco1` [MLS000723689] as the compound, how does the pIC50 read?
A: Its pIC50 is 4.91.

Q: With `N#CC1C(=N)Oc2nc(-c3ccccc3)[nH]c2C1c1cccnc1` (centres undefined) [5-amino-2-phenyl-7-pyridin-3-yl-3,7-dihydropyrano[2,3-d]imidazole-6-carbonitrile] as the compound, how does the pIC50 read?
A: The pIC50 was 4.18.

Q: How did the pIC50 turn out when `Cc1ccc(-c2n[nH]c3c2C(c2ccsc2)C(C#N)C(=N)O3)cc1` (centres undefined) [SMR000143666] was run?
A: The pIC50 was 4.95.

Q: With `O=C(Cc1cc(=O)[nH][nH]1)NN=Cc1cccc(Cl)c1Cl` as the compound, how does the pIC50 read?
A: The pIC50 was 3.99.

Q: How did the pIC50 turn out when `Cc1ccc(SCc2cc(=O)[nH][nH]2)cc1` [5-p-Tolylsulfanylmethyl-2,4-dihydro-pyrazol-3-one] was run?
A: Its pIC50 is 5.75.

Q: With `COc1cccc(C=NNC(=O)Cc2c(C)[nH][nH]c2=O)c1OC` [SMR000147373] as the compound, how does the pIC50 read?
A: The pIC50 was 4.63.

Q: `Cc1cc(CN=Nc2ccc([N+](=O)[O-])cn2)c(C)n1-c1ccc(C(=O)O)cc1` [4-{2,5-dimethyl-3-[2-(5-nitro-2-pyridinyl)carbonohydrazonoyl]-1H-pyrrol-1-yl}benzoic acid] was tested. Which pIC50 did it give?
A: Its pIC50 is 4.90.

Q: With `CC(C)CC1c2c(-c3ccccc3)n[nH]c2OC(=N)C1C#N` (centres undefined) [MLS000121961] as the compound, how does the pIC50 read?
A: Its pIC50 is 4.47.

Q: How did the pIC50 turn out when `COc1cccc(-c2n[nH]c3c2C(c2ccoc2)C(C#N)C(=N)O3)c1` (centres undefined) [MLS000558215] was run?
A: Its pIC50 is 4.11.

Q: How did the pIC50 turn out when `Cc1ccc(-c2n[nH]c3c2C(C)C(C#N)C(=N)O3)cc1` (centres undefined) [6-amino-4-methyl-3-(4-methylphenyl)-2,4-dihydropyrano[2,3-c]pyrazole-5-carbonitrile] was run?
A: Its pIC50 is 4.79.

Q: With `CC(=O)N1CCC2(CC1)c1c(CSc3ccc(C)cc3)n[nH]c1OC(=N)C2C#N` (centres undefined) [SMR000036525] as the compound, how does the pIC50 read?
A: The pIC50 was 4.68.

Q: How did the pIC50 turn out when `N#CC1C(=N)Oc2[nH]nc(-c3ccc(F)cc3)c2C1c1ccncc1` (centres undefined) [6-amino-3-(4-fluorophenyl)-4-pyridin-4-yl-2,4-dihydropyrano[2,3-c]pyrazole-5-carbonitrile] was run?
A: Its pIC50 is 4.03.

Q: `N#Cc1c(NC=C2C(=O)NC(=S)NC2=O)sc2c1CCCC2` [SMR000305847] was tested. Which pIC50 did it give?
A: Its pIC50 is 3.96.

Q: `CC(C)(C)OC(=O)C1=[N+]2N[CH-]c3ccccc3C2C2(C(=O)c3ccccc3C2=O)[C@H]1c1ccc([N+](=O)[O-])cc1` (stereo partly drawn) [(2R,3R)-2-(4-nitrophenyl)-1',3'-dioxo-3-spiro[3,10b-dihydro-2H-pyrrolo[2,1-a]phthalazine-1,2'-indene]carboxylic acid tert-butyl ester] was tested. Which pIC50 did it give?
A: Its pIC50 is 5.65.
